The values that follow come from patent US11420956B2, “Ureas having Androgen Receptor degradation activity and uses thereof” (ACCUTAR BIOTECHNOLOGY INC., priority 2019, dated 2022).

Substitutions are numbered along the chain they refer to.

What all share (type): cell-based
Holding throughout (settings): 24 hours after administration

The target of experiment [1] is T1, androgen receptor (AR) (Homo sapiens, UniProt P10275, T878A).
T1 construct: endogenous in cells; host or cells: LNCAP
T1 sequence (P10275 1-920 T878A): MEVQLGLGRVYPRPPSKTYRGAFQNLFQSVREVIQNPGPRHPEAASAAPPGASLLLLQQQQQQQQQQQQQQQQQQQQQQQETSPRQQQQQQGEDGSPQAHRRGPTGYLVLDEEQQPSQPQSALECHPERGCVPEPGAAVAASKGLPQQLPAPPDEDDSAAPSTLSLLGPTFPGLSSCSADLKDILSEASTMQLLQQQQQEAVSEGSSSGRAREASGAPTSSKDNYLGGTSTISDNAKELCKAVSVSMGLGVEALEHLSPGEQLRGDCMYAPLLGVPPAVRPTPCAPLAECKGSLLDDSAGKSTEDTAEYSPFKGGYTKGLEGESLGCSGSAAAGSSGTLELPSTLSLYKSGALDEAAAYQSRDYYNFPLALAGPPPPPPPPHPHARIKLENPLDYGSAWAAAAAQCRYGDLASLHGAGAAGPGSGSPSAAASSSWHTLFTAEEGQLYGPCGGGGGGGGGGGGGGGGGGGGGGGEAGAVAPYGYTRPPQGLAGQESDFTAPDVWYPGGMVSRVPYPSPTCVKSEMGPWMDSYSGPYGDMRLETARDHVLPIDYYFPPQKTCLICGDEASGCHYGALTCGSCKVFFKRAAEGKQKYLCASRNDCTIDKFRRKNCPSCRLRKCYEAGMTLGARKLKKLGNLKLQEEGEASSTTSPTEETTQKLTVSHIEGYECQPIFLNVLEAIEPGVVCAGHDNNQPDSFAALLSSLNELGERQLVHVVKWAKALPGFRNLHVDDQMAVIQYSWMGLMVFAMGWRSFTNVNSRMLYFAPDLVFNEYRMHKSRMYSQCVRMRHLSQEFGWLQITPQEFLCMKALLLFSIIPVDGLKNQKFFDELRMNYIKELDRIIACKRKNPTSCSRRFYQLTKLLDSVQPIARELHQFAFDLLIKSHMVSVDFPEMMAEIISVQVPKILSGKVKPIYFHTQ
Briefly: AR degradation in LNCAP cells (Western blot). The method, boiled down: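 Cells plated in RPMI with 10% FBS overnight, then treated with compound at various concentrations (from 1000× DMSO stocks) for 24 h at 37 °C. AR level measured by Western blot with GAPDH as loading control, infrared-fluorescent detection and band quantification; DC50 is concentration giving 50% AR degradation.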
For orientation: Immunoblotting shows a protein as a band on a membrane.

In experiment [2] the target is T2, androgen receptor (AR) (Homo sapiens, UniProt P10275).
T2 construct: endogenous in cells; host or cells: VCAP
T2 sequence (P10275 1-920): T1 sequence (P10275 1-920 T878A) with A878T
The experiment can be described thus: AR degradation in VCAP cells (Western blot). The method, then: (§1) LNCAP, VCAP and 22Rv1 cells were plated in 24-well plates at 1.5×10E5 cells/well in the RPMI growth medium containing 10% FBS and 1% Penicillin Streptomycin, and then incubated at 37° C. overnight. The following day, the test compound was administered to the cells by using 1000× compound stock solution prepared in DMSO at various concentrations. After administration of the compound, the cells were then incubated at 37° C. for 24 hours. Upon completion, the cells were washed with PBS and protein was collected in Laemmli sample buffer (1×; VWR International). Proteins in cell lysate were separated by SDS-PAGE and transferred to Odyssey nitrocellulose membranes (Licor) with iblot® dry blotting transfer system (ThermoFisher). Nonspecific binding was blocked by incubating membranes with Intercept Blocking Buffer (Licor) for 1 hour at room temperature with gentle shaking. The membranes were then incubated overnight at 4° C. with Primary antibodies rabbit anti-AR (1:1,000, Cell Signaling, 5153) and mouse anti-GAPDH (1:5,000, Santa Cruz Biotechnology, sc-47724) diluted in Intercept Blocking Buffer containing 0.1% Tween 20. After washing 3 times with TBS-T, the membranes were incubated with IRDye® […] goat anti-mouse IgG (1:20,000, Licor) or IRDye® […] goat anti-rabbit IgG (1:20,000, Licor) for 1 hour. After TBS-T washes, membranes were rinsed in TBS and scanned on Odyssey® CLx Imaging System (Licor). The bands were quantified using Image Studio™ Software (Licor).
(§2) Tables 5 and 6 summarize the androgen receptor (AR) degradative activity of exemplary compounds in LNCAP, VCAP and 22Rv1 cell lines 24 hours after administration. DC50: compound concentration needed for 50% target protein degradation.

In experiment [3] the test system is androgen receptor (AR). The experiment can be described thus: AR degradation in 22Rv1 cells (Western blot). Here is the method:
as §1, §2

Regarding “(2R,5S)-4-(4-cyano-3-methoxyphenyl)-N-(4-(4-((4-(2-((S)-2,6-dioxopiperidin-3-yl)-1-oxoisoindolin-5-yl)piperazin-1-yl)methyl)piperidin-1-yl)-3-fluorophenyl)-2,5-dimethylpiperazine-1-carboxamide [Compound 1-53]”, the DC50 on androgen receptor (AR) [1], on androgen receptor (AR) [2] and in the experiment with androgen receptor (AR) [3] was at most 0.01 µM each time.

In the case of `C[C@@H]1CN(c2ccc(C#N)c(Cl)c2)[C@@H](C)CN1C(=O)Nc1cnc(N2CCC(CN3CCN(c4ccc5c(c4)C(=O)N(C4CCC(=O)NC4=O)C5=O)CC3)CC2)nc1` (stereo partly drawn) [Compound 1-20, (2R,5S)-4-(3-chloro-4-cyanophenyl)-N-(2-(4-((4-(2-(2,6-dioxopiperidin-3-yl)-1,3-dioxoisoindolin-5-yl)piperazin-1-yl)methyl)piperidin-1-yl)pyrimidin-5-yl)-2,5-dimethylpiperazine-1-carboxamide], the half-maximal degradation concentration (DC50) at androgen receptor (AR) [1] and with androgen receptor (AR) [3] was at most 0.01 µM each time.

Turning to `C[C@@H]1CN(c2ccc(C#N)c(C(F)(F)F)c2)[C@@H](C)CN1C(=O)Nc1ccc(N2CCC(CN3CCN(c4ccc5c(c4)CN([C@H]4CCC(=O)NC4=O)C5=O)CC3)CC2)nc1` [Compound 1-43, (2R,5S)-4-(4-cyano-3-(trifluoromethyl)phenyl)-N-(6-(4-((4-(2-((S)-2,6-dioxopiperidin-3-yl)-1-oxoisoindolin-5-yl)piperazin-1-yl)methyl)piperidin-1-yl)pyridin-3-yl)-2,5-dimethylpiperazine-1-carboxamide], the DC50 on androgen receptor (AR) [1], at androgen receptor (AR) [2] and in the experiment on androgen receptor (AR) [3] was at most 0.01 µM each time.

Take `C[C@@H]1CN(c2ccc(C#N)c(Cl)c2)[C@@H](C)CN1C(=O)Nc1cnc(N2CCC(CN3CCN(c4ccc5c(c4)C(=O)N(C4CCC(=O)NC4=O)C5=O)CC3)CC2)nc1` (stereo partly drawn) [Compound 1-21, (2R,5S)-4-(3-chloro-4-cyanophenyl)-N-(2-(4-((4-(2-(2,6-dioxopiperidin-3-yl)-1,3-dioxoisoindolin-5-yl)piperazin-1-yl)methyl)piperidin-1-yl)pyrimidin-5-yl)-2,5-dimethylpiperazine-1-carboxamide]: the DC50 on androgen receptor (AR) [1] and at androgen receptor (AR) [2] was at most 0.01 µM each time.

Turning to `COc1cc(N2C[C@@H](C)N(C(=O)Nc3cnc(N4CCC(CN5CCN(c6ccc7c(c6)C(=O)N(C6CCC(=O)NC6=O)C7=O)CC5)CC4)nc3)C[C@@H]2C)ccc1C#N` (stereo partly drawn) [Compound 1-27, (2R,5S)-4-(4-cyano-3-methoxyphenyl)-N-(2-(4-((4-(2-(2,6-dioxopiperidin-3-yl)-1,3-dioxoisoindolin-5-yl)piperazin-1-yl)methyl)piperidin-1-yl)pyrimidin-5-yl)-2,5-dimethylpiperazine-1-carboxamide], the DC50 on androgen receptor (AR) [1] and at androgen receptor (AR) [2] was at most 0.01 µM each time.

For `C[C@@H]1CN(C(=O)Nc2cnc(N3CCC(CN4CCN(c5ccc6c(c5)C(=O)N(C5CCC(=O)NC5=O)C6=O)CC4)CC3)nc2)[C@@H](C)CN1c1ccc(C#N)c(Cl)c1` (stereo partly drawn) [Compound 1-22, (2S,5R)-4-(3-chloro-4-cyanophenyl)-N-(2-(4-((4-(2-(2,6-dioxopiperidin-3-yl)-1,3-dioxoisoindolin-5-yl)piperazin-1-yl)methyl)piperidin-1-yl)pyrimidin-5-yl)-2,5-dimethylpiperazine-1-carboxamide], the DC50 on androgen receptor (AR) [1] and on androgen receptor (AR) [2] was above 0.1 µM each time.

As to `C[C@@H]1CN(c2ccc(C#N)c(C(F)(F)F)c2)[C@@H](C)CN1C(=O)Nc1cnc(N2CCC(CN3CCN(c4ccc5c(c4)C(=O)N(C4CCC(=O)NC4=O)C5=O)CC3)CC2)nc1` (stereo partly drawn) [Compound 1-31, (2R,5S)-4-(4-cyano-3-(trifluoromethyl)phenyl)-N-(2-(4-((4-(2-(2,6-dioxopiperidin-3-yl)-1,3-dioxoisoindolin-5-yl)piperazin-1-yl)methyl)piperidin-1-yl)pyrimidin-5-yl)-2,5-dimethylpiperazine-1-carboxamide], the DC50 at androgen receptor (AR) [1] and on androgen receptor (AR) [2] was at most 0.01 µM throughout.

Turning to `COc1cc(N2C[C@@H](C)N(C(=O)Nc3ccc(N4CCC(CN5CCN(c6ccc7c(c6)C(=O)N(C6CCC(=O)NC6=O)C7=O)CC5)CC4)nc3)C[C@@H]2C)ccc1C#N` (stereo partly drawn) [Compound 1-26, (2R,5S)-4-(4-cyano-3-methoxyphenyl)-N-(6-(4-((4-(2-(2,6-dioxopiperidin-3-yl)-1,3-dioxoisoindolin-5-yl)piperazin-1-yl)methyl)piperidin-1-yl)pyridin-3-yl)-2,5-dimethylpiperazine-1-carboxamide], the DC50 at androgen receptor (AR) [1] and at androgen receptor (AR) [2] was at most 0.01 µM in each case.

Consider `C[C@@H]1CN(c2ccc(C#N)c(Cl)c2)[C@@H](C)CN1C(=O)Nc1ccc(N2CCC(CN3CCN(c4ccc5c(c4)C(=O)N(C4CCC(=O)NC4=O)C5=O)CC3)CC2)nc1` (stereo partly drawn) [Compound 1-14, (2R,5S)-4-(3-chloro-4-cyanophenyl)-N-(6-(4-((4-(2-(2,6-dioxopiperidin-3-yl)-1,3-dioxoisoindolin-5-yl)piperazin-1-yl)methyl)piperidin-1-yl)pyridin-3-yl)-2,5-dimethylpiperazine-1-carboxamide], for which the DC50 at androgen receptor (AR) [1] and at androgen receptor (AR) [2] was at most 0.01 µM in each case.

Take `COc1cc(N2C[C@@H](C)N(C(=O)Nc3cc(F)c(N4CCC(CN5CCN(c6ccc7c(c6)C(=O)N(C6CCC(=O)NC6=O)C7=O)CC5)CC4)cc3F)C[C@@H]2C)ccc1C#N` (stereo partly drawn) [Compound 1-29, (2R,5S)-4-(4-cyano-3-methoxyphenyl)-N-(4-(4-((4-(2-(2,6-dioxopiperidin-3-yl)-1,3-dioxoisoindolin-5-yl)piperazin-1-yl)methyl)piperidin-1-yl)-2,5-difluorophenyl)-2,5-dimethylpiperazine-1-carboxamide]: the DC50 on androgen receptor (AR) [1] and at androgen receptor (AR) [2] was at most 0.01 µM throughout.
